From patent US10105437B2, “Epitopes related to coeliac disease” (BTG International Limited, priority 2004, dated 2018)

System: PBMC from HLA-DQ2+ coeliac subjects
Test: Interferon gamma ELISPOT, hordein 20mer first round library after barley challenge
Type: cell-based, human
Design: key to individual peptide showing maximal response in a single individual (asterisk): *: an asterisk indicates the eight individual peptides showing maximal response in a single individual
Settings: for number of subjects with > 70% maximal response / subjects with at least 40% maximal peptide response: 17 subjects
Procedure: Peptides were initially dissolved in aqueous acetonitrile (50%). Peptides in aqueous acetonitrile were transferred to sterile 96-well plates and diluted in sterile PBS with 1 mM calcium (250 mcg/ml) and then incubated with tTG (25 mcg/ml) (Sigma T5398) for 6 h 37° C. and then stored frozen (−20° C.) until use.
IFNγ ELISpot assays (Mabtech, Sweden) were performed in 96-well plates (MAIP S-45, Millipore) in which each well contained 25 mcl of peptide solution and 100 mcl of PBMC (2-8×10^5/well) in RPMI containing 10% heat inactivated human AB serum. After development and drying, IFNγ ELISpot plates were assessed using the MAIP automated ELISpot plate counter. Data was then analysed according to a novel algorithm (Expectation Maximization: EM) to define and quantify interferon-gamma responses to 9mer sequences contained within the peptide library (see FIG. 3 and below). 9mer peptides were then rationalised according to an algorithm that assumes redundancy in T-cell recognition, the “IterativeCluster” algorithm (see FIG. 4 and below), by allowing groups of amino acids with similar chemical properties at any one position in the 9mer, or for glutamate to replace glutamine at any position (assuming deamidation may have occurred).
Secalin and hordein 20mer first round peptide libraries were assessed 3 days after completing rye (bread, 100 g/d for 3 days) or barley (boiled, 100 g/d for 3 days) challenge (“day 6” PBMC interferon gamma ELISPOT responses). Although iterative analysis using 2nd and 3rd round peptide libraries to define epitopes has not yet been performed, the 20mers pre-treated with tTG found to induce “potent” responses shared substantial structural similarity to the bioactive peptides identified after wheat challenge. […] The dominant (>70% maximal response) 20mer after rye challenge was usually […] (SEQ ID NO: 1769) (8/14 subjects), or occasionally […] (SEQ ID NO: 1770) (4/14), […] (SEQ ID NO: 1771) (1/14), […] (SEQ ID NO: 1772) (1/14) and/or […] (SEQ ID NO: 1773) (1/14). Additional peptides noted for greater than 40% maximal response in at least 1 subject include:
Typically, the dominant peptides after barley challenge included one of six peptide motifs, or were one of eight other individual 20mers “dominant” in only one of 17 subjects after barley challenge. The six motifs identified:
The barley hordein peptides showing at least 40% maximal peptide response in at least one subject include the following, wherein an asterisk indicates the eight individual peptides showing maximal response in a single individual: […]

Sequence | number of subjects with > 70% maximal response | subjects with at least 40% maximal peptide response | individual peptide showing maximal response in a single individual (asterisk)
PFPQPQQPFPWQPQQPFPQP (Description of Artificial Sequence: Synthetic gluten peptide) [barley hordein 20mer] | 0 | 6/17 | 
PFPQPQQPFSWQPQQPFLQP (Description of Artificial Sequence: Synthetic gluten peptide) [barley hordein 20mer] | 0 | 1/17 | 
PFPQQPQQPFPQPQQPFRQQ (Description of Artificial Sequence: Synthetic gluten peptide) [barley hordein 20mer] | 3 | 6/17 | 
PQGSEQIIPQQPFPLQPQPF (Description of Artificial Sequence: Synthetic gluten peptide) [barley hordein 20mer] | 1 | 2/17 | 
PQPFPQQPIPQQPQPYPQQP (Description of Artificial Sequence: Synthetic gluten peptide) [barley hordein 20mer] | 2 | 6/17 | 
PQPYPQQPQPFPQQPPFCQQ (Description of Artificial Sequence: Synthetic gluten peptide) [barley hordein 20mer] | 1 | 1/17 | *
PQQASPLQPQPQQASPLQPQ (Description of Artificial Sequence: Synthetic gluten peptide) [barley hordein 20mer] | 1 | 1/17 | 
PQQPPFWPQQPFPQQPPFGL (Description of Artificial Sequence: Synthetic gluten peptide) [barley hordein 20mer] | 1 | 1/17 | *
PQQPQQPFPQPQQPFSWQPQ (Description of Artificial Sequence: Synthetic gluten peptide) [barley hordein 20mer] | 2 | 6/17 | *
PQQPVPQQPQPYPQQPQPFP (Description of Artificial Sequence: Synthetic gluten peptide) [barley hordein 20mer] | 1 | 5/17 | 
PVLSQQQPCTQDQTPLLQEQ (Description of Artificial Sequence: Synthetic gluten peptide) [barley hordein 20mer] | 1 | 1/17 | 
PWQPQQPFPQPQEPIPQQPQ (Description of Artificial Sequence: Synthetic gluten peptide) [barley hordein 20mer] | 1 | 1/17 | 
PYLPEELSPQYQIPTPLQPQ (Description of Artificial Sequence: Synthetic gluten peptide) [barley hordein 20mer] | 1 | 1/17 | *
QGSEQIIPQQPQQPFPLQPH (Description of Artificial Sequence: Synthetic gluten peptide) [barley hordein 20mer] | 3 | 7/17 | *
QIPYVHPSILQQLNPCKVFL (Description of Artificial Sequence: Synthetic gluten peptide) [barley hordein 20mer] | 1 | 1/17 | 
QKYPEQPQQPFPWQQPTIQL (Description of Artificial Sequence: Synthetic gluten peptide) [barley hordein 20mer] | 1 | 1/17 | 
QPFPQPQQPFPWQPQQPFPQ (Description of Artificial Sequence: Synthetic gluten peptide) [barley hordein 20mer] | 2 | 10/17 | 
QPFPTPQQFFPYLPQQTFPP (Description of Artificial Sequence: Synthetic gluten peptide) [barley hordein 20mer] | 1 | 4/17 | 
QPQPYPQQPQPYPQQPFQPQ (Description of Artificial Sequence: Synthetic gluten peptide) [barley hordein 20mer] | 2 | 7/17 | 
QPQQPFPQPQQPIPYQPQQP (Description of Artificial Sequence: Synthetic gluten peptide) [barley hordein 20mer] | 1 | 4/17 | *
QPQQPQPFPQQPVPQQPQPY (Description of Artificial Sequence: Synthetic gluten peptide) [barley hordein 20mer] | 2 | 5/17 | 
QQPFPLQPQQPFPQPQPFPQ (Description of Artificial Sequence: Synthetic gluten peptide) [barley hordein 20mer] | 0 | 1/17 | 
QQPFPQPQQPIPYQPQQPFN (Description of Artificial Sequence: Synthetic gluten peptide) [barley hordein 20mer] | 1 | 5/17 | 
QQPQPFSQQPIPQQPQPYPQ (Description of Artificial Sequence: Synthetic gluten peptide) [barley hordein 20mer] | 8 | 9/17 | 
QQQPFPQQPIPQQPQPYPQQ (Description of Artificial Sequence: Synthetic gluten peptide) [barley hordein 20mer] | 2 | 8/17 | 
QSQQQFPQPQQPFPQQPQQP (Description of Artificial Sequence: Synthetic gluten peptide) [barley hordein 20mer] | 0 | 1/17 | 
RQLPKYIIPQQPQQPFLLQP (Description of Artificial Sequence: Synthetic gluten peptide) [barley hordein 20mer] | 1 | 1/17 | 
SPLQPQQPFPQGSEQIIPQQ (Description of Artificial Sequence: Synthetic gluten peptide) [barley hordein 20mer] | 0 | 1/17 | 
VSPHPGQQTTVSPHQGQQTT (Description of Artificial Sequence: Synthetic gluten peptide) [barley hordein 20mer] | 1 | 1/17 | *
